{
  "source": "patent US11065260B1",
  "about": "“Method of treatment for reducing pulmonary inflammation in a patient with pathogen infection using oral prostacyclin analog drugs” (priority 2020, dated 2021)",
  "origin": "cited, not measured here",
  "key": {"COVID-19 [1]": {"tested_on": "COVID-19", "conditions": "randomized clinical trial of 199 patients"}, "[2]": {"conditions": "in vivo, po"}, "[3]": {"conditions": "patients with pulmonary hypertension and ARDS"}, "[4]": {"conditions": "human, in vivo, po"}, "[5]": {"conditions": "human, in vivo, inhaled or intranasal"}, "[6]": {"conditions": "within 1 hour, pH 7.4 phosphate buffer, optimal formulation"}, "[7]": {"conditions": "human, in vivo"}, "pulmonary inflammation": {"tested_on": "pulmonary inflammation", "conditions": "several animal studies"}, "COVID-19 [8]": {"tested_on": "COVID-19", "conditions": "several small trials"}},
  "data": [
    {"molecule": "lopinavir-ritonavir", "values": [
      {"measurement": "clinical benefit", "setting": "COVID-19 [1]", "value": "No benefit"}
    ]},
    {"molecule": "CC#CCC(C)[C@H](O)/C=C/[C@@H]1[C@H]2C/C(=C/CCCC(=O)O)C[C@H]2C[C@H]1O", "note": "(stereo partly drawn) [iloprost]", "values": [
      {"measurement": "IL-2 and RANKL", "setting": "T cells", "value": "increasing"},
      {"measurement": "TNF-α production by T cells", "setting": "T cells", "value": "reducing"},
      {"measurement": "number of T regulatory cells", "setting": "T cells", "value": "reducing"},
      {"measurement": "production of interleukin IL-6", "setting": "human monocytes", "value": "inhibit"},
      {"measurement": "production of intracellular TNF-α", "setting": "human monocytes", "value": "inhibit"},
      {"measurement": "steady-state serum levels", "setting": "[2]", "value": 260, "unit": "pg/mL"},
      {"measurement": "gas exchange", "setting": "[3]", "value": "improved"},
      {"measurement": "adverse effects leading to discontinuation of dose escalation", "setting": "[4]", "value": "flushing and headache"},
      {"measurement": "bioavailable dose fraction", "setting": "[4]", "value": "highest"},
      {"measurement": "duration of half-maximal serum levels (mean)", "setting": "[4]", "value": 2.4, "unit": "h"},
      {"measurement": "duration of therapeutic serum levels", "setting": "[4]", "value": "2.1 to 5.0", "unit": "h"},
      {"measurement": "half-life", "setting": "[5]", "value": "20 to 30", "unit": "min"},
      {"measurement": "in vitro dissolution of the dose", "setting": "[6]", "value": 60, "unit": "%"},
      {"measurement": "contraindications", "setting": "[7]", "value": "no contraindications"},
      {"measurement": "side effects", "setting": "[7]", "value": "minimal side effects"},
      {"measurement": "pulmonary inflammation", "setting": "pulmonary inflammation", "value": "reduce pulmonary inflammation"}
    ]},
    {"molecule": "CCN(CCO)CCCC(C)Nc1ccnc2cc(Cl)ccc12", "note": "(stereo not drawn) [hydroxychloroquine]", "values": [
      {"measurement": "clinical results", "setting": "COVID-19 [8]", "value": "mixed results"}
    ]}
  ]
}
